For the assay, the target named is Kynurenine/alpha-aminoadipate aminotransferase, mitochondrial (Homo sapiens, UniProt Q8N5Z0). Put plainly: Inhibition Spectra Assay. The note with it: 37 °C. The method, then: Formation of kynurenic acid (KYNA) is indirectly assessed by a decrease in light absorbance at 370 nm (OD370) as the L-kynurenine (KYN) substrate is converted by the human KAT II (hKAT II) enzyme into KYNA. An inhibitor would therefore inhibit the decrease in OD370.The protocol was performed by placing the following reagents into a Costar 384 well black plate (30 uL total assay volume/well): 10 uL of 3x concentrated compound; 10 uL of 3x concentrated substrate mix (BGG (Sigma G-5009); 3 mM L-Kynurenine in 150 mM Tris Acetate (Sigma K3750); 3 mM alpha-ketoglutaric acid in 150 mM Tris Acetate (Sigma K2010); and 210 uM pyridoxal 5-phosphate (PLP) in 150 mM Tris Acetate (Sigma 9255)); and 10 uL of 3x concentrated enzyme (15 nM enzyme in 150 mM Tris Acetate with 0.3% bovine serum).Plates were sealed and incubated at 37 C. for 15-20 h before reading OD370 on a SpectraMax Plus plate reader.
Chain of Kynurenine/alpha-aminoadipate aminotransferase, mitochondrial (Q8N5Z0 whole entry): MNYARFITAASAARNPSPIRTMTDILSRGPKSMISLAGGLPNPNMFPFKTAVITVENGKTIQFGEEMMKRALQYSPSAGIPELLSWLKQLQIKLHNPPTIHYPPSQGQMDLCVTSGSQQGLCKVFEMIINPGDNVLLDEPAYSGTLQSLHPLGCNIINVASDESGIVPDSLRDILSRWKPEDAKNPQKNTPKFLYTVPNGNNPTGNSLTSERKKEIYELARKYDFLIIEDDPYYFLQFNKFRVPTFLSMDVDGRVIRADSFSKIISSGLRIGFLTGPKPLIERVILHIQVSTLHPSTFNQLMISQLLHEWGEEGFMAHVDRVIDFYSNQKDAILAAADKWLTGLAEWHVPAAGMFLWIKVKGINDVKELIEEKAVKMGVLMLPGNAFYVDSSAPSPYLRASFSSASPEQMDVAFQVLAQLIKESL

Each structure is given as a SMILES string.

The term IC50 denotes the concentration that gives 50% inhibition. A low value points to greater potency in that assay.

`Cn1nc2c(c1Cc1ccccc1)C[C@@H](N)C(=O)N2O` [US8933095, 2] gave an IC50 of 63.7 nM.
